Data taken from article PMC8683085, “Serine ADP-ribosylation marks nucleosomes for ALC1-dependent chromatin remodeling” (eLife, 2021).
Like-named read-outs stand apart in the source and are kept apart here.

Experiments:
ALC1 macrodomain [1] = target: T1, ALC1 macrodomain (Homo sapiens, UniProt Q86WJ1); settings: free ADP-ribose molecules; ref Singh et al., 2017; cited from earlier work
T1 construct: A fragment encoding amino acids 636–878, corresponding to the macrodomain; 6xHis-SUMO (N, cleaved yes); made in house; host or cells: E. coli Rosetta2 (DE3)
T1 sequence (Q86WJ1 636-878): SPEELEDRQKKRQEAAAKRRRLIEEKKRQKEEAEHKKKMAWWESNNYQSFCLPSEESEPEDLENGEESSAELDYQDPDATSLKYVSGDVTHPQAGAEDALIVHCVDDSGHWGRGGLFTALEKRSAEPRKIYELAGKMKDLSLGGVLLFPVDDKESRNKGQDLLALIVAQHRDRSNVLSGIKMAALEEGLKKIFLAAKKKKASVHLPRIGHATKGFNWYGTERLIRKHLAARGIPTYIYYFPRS
Source text: We therefore chose to pursue ALC1 for our initial ADP-ribosylated histone peptide interaction studies. Nine fluorescently-labeled, ADP-ribosylated histone peptides (H2BS6ADPr1-4 and H3S10ADPr ...

ALC1 = target: T2, ALC1 (Homo sapiens, UniProt Q86WJ1); experiment: Restriction enzyme accessibility (REA) nucleosome remodeling assay, single substrate, recombinant ALC1; type: biochemical; settings: for k, ALC1 remodeling rate constant on unmodified nucleosome in the presence of free ADP-ribosylated peptide: REA assay, 4 nM ALC1, unmodified nucleosome 20 nM, peptide 40 nM, 2 mM ATP, one-phase exponential decay fit, n = 3
T2 sequence (Q86WJ1 1-897): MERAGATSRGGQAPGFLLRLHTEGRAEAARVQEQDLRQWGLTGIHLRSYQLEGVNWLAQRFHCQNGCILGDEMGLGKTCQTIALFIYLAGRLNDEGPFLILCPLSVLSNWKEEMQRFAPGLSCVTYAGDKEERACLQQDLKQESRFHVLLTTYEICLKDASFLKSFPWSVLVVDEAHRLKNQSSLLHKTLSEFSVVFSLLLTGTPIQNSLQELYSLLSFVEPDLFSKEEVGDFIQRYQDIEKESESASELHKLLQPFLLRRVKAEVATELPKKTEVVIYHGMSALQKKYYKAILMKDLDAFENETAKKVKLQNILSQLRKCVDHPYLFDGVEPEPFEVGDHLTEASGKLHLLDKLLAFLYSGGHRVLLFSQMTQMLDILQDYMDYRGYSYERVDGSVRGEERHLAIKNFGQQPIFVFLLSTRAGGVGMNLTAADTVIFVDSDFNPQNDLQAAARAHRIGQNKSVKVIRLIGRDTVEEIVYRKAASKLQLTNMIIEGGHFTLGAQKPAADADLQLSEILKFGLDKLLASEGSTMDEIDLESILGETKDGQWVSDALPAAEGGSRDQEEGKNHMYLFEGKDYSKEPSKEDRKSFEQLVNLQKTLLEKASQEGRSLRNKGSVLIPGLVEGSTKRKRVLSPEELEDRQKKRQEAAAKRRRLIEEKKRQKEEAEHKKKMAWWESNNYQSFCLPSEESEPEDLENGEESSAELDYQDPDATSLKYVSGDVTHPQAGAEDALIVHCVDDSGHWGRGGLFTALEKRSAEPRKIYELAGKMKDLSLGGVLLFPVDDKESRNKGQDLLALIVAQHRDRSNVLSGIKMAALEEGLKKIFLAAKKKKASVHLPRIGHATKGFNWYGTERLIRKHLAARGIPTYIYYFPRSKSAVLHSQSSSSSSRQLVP
Protocol: REA assays and analysis were performed as previously described ([Dann et al., 2017]) with several modifications. Nucleosome remodeling reactions (25 μL) were carried out in REA Buffer (12 mM HEPES, pH 7.9, 4 mM Tris, pH 7.5, 60 mM KCl, 10 mM MgCl2, 10% glycerol, and 0.02% NP-40) including 1 μL of PstI (NEB, at 100,000 U/mL), 2 mM ATP (Sigma-Aldrich), and final concentrations of 4 nM ALC1 or 10 nM CHD4 and 20 nM of the desired nucleosome substrate. The reaction was incubated for 5 min prior to addition of chromatin remodeler to ensure that any trace amount of free DNA from the nucleosome assembly was digested prior to initiating the reaction. This is required to ensure that free DNA digestion can be assigned as background activity and is not interpreted as enzyme-dependent nucleosome remodeling in data processing. To each reaction, 37.5 μL of Quench Buffer (20 mM Tris, pH 7.5, 70 mM EDTA, pH 8, 2% SDS, 10% glycerol) was added at time points of 0, 3, 6, 18, 36, and 60 min. Samples were then deproteinized with 30 U/mL proteinase K (NEB) for 1 h at 37 °C. DNA purification was performed using the Qiagen PCR purification kit following manufacturer’s protocols. Purple Gel Loading Dye (6 X, NEB) was added to a final concentration of 1 X to the quenched reaction and samples were loaded onto a 5% TBE gel and run for 60 min at 150 volts in 0.5 X TBE Buffer (BioRad). Gels were stained with ethidium bromide and imaged on a BioRad ChemiDoc. Gel densitometry measurements were performed using ImageJ. For each lane, the total densitometry signal was calculated by adding the densitometry values corresponding to the PstI-digested species (lower band) and undigested species (upper band). The fraction unremodeled value for each lane was then calculated using the following formula: fraction unremodeled= signalundigested/signalundigested+ signaldigested […]

[2] = target: T3, Af1521 macrodomain (fused to rabbit Fc tag) (Archaeoglobus fulgidus, UniProt O28751); experiment: Fluorescence polarization binding of fluorescein-labeled ADP-ribosylated histone peptides to the Af1521 macrodomain (pan-ADP-ribose detection reagent); settings: fluorescein-labeled peptide 2 nM, reagent titrated 0-2000 nM (4000 nM for mono-/di-ADPr), 25 mM Tris pH 7.5, 100 mM NaCl, 2 mM MgCl2, 0.001% Triton X100, 1 mM DTT, one-site specific binding fit, n = 3, read-out: Kd,app
T3 construct: Af1521 macrodomain fused to rabbit Fc tag, MilliporeSigma; purchased MilliporeSigma
T3 sequence (O28751 1-192): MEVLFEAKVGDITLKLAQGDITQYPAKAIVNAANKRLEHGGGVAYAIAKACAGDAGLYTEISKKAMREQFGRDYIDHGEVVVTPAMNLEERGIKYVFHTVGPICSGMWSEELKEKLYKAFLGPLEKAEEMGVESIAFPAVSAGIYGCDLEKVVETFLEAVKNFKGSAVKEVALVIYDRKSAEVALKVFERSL

ALC1 macrodomain [3] = target: T1, ALC1 macrodomain; experiment: Fluorescence polarization binding of fluorescein-labeled ADP-ribosylated histone peptides to the ALC1 macrodomain
Protocol: Each fluorescently-labeled H2B (unmodified, mono-, di-, tri-, and tetra-ADP-ribose at H2BS6) and H3 peptide (unmodified, mono-, di-, tri-, tetra-, or penta-ADP-ribose at H3S10) was diluted to 2 nM in a buffer containing 25 mM Tris, pH 7.5, 100 mM NaCl, 2 mM MgCl2, 0.001% Triton X100, and 1 mM DTT. Note, H3 elongates more efficiently than H2B and so the penta-ADP-ribosylated species could be isolated for this peptide. Peptide concentration was calculated via fluorescein extinction coefficient (A480 = 70,000). To analyze peptide:pan-ADP-ribose detection reagent (Af1521 macrodomain fused to rabbit Fc tag, MilliporeSigma) interaction, the pan-ADP-ribose detection reagent was titrated into each peptide to final concentrations ranging from 0 to 2000 nM (points represent 3 x dilutions starting from 2000 nM; a higher concentration of 4000 nM was also included for mono- and di-ADP-ribosylated peptides). To analyze peptide:ALC1-macrodomain interaction, the ALC1-macrodomain was titrated into each peptide to final concentrations ranging from 0 to 3000 nM (points represent 3 x dilutions starting from 3000 nM). Reactions were added to a black, flat-bottom 96-well plate (Corning Costar) and analyzed on a BioTek Cytation five imager equipped with a Green FP filter set (excitation: 485 nm, emission: 528 nm). […]

tri-ADP-ribose
Kd (ALC1 macrodomain [1]): ~10 nM

H2BS6ADPr4 peptide: H2B (1-16) peptide with tetra-ADP-ribose at S6; fluorescein-labeled in FP assays ({5(6)‑carboxyfluorescein}-PEPAKS(tetra‑ADP‑ribose)APAPKKGSKK-NH2)
k, ALC1 remodeling rate constant on unmodified nucleosome in the presence of free ADP-ribosylated peptide (ALC1): 1.886e-05 min⁻¹

CC(C)C[C@H](NC(=O)[C@H](CCC(N)=O)NC(=O)[C@H](CCCCN)NC(=O)[C@H](CCCNC(=N)N)NC(=O)[C@@H]1CCCN1C(=O)[C@H](C)NC(=O)[C@H](CCCCN)NC(=O)CNC(=O)CNC(=O)[C@@H](NC(=O)[C@H](CO[C@H]1O[C@H](COP(=O)(O)OP(=O)(O)OC[C@H]2O[C@@H](n3cnc4c(N)ncnc43)[C@H](O[C@H]3O[C@H](COP(=O)(O)OP(=O)(O)OC[C@H]4O[C@@H](n5cnc6c(N)ncnc65)[C@H](O[C@H]5O[C@H](COP(=O)(O)OP(=O)(O)OC[C@H]6O[C@@H](n7cnc8c(N)ncnc87)[C@H](O[C@H]7O[C@H](COP(=O)(O)OP(=O)(O)OC[C@H]8O[C@@H](n9cnc%10c(N)ncnc%109)[C@H](O[C@H]9O[C@H](COP(=O)(O)OP(=O)(O)OC[C@H]%10O[C@@H](n%11cnc%12c(N)ncnc%12%11)[C@H](O)[C@@H]%10O)[C@@H](O)[C@H]9O)[C@@H]8O)[C@@H](O)[C@H]7O)[C@@H]6O)[C@@H](O)[C@H]5O)[C@@H]4O)[C@@H](O)[C@H]3O)[C@@H]2O)[C@@H](O)[C@H]1O)NC(=O)[C@H](CCCCN)NC(=O)[C@H](CCCNC(=N)N)NC(=O)[C@H](C)NC(=O)[C@@H](NC(=O)[C@H](CCC(N)=O)NC(=O)[C@H](CCCCN)NC(=O)[C@@H](NC(=O)[C@H](CCCNC(=N)N)NC(=O)[C@H](C)NC(=O)c1ccc2c(c1)C(=O)OC21c2ccc(O)cc2Oc2cc(O)ccc21)[C@@H](C)O)[C@@H](C)O)[C@@H](C)O)C(N)=O [H3S10ADPr5 peptide]
Kd [2]: 42.5 nM
Kd (ALC1 macrodomain [3]): 27.9 nM

H3S10ADPr4 peptide: H3 (1–20) peptide with tetra-ADP-ribose at S10; fluorescein-labeled in FP assays
stimulation of ALC1-dependent remodeling of unmodified nucleosomes by the freely diffusing peptide (ALC1; ALC1, unmodified nucleosome 20 nM, peptide 10, 40 or 200 nM): unable to appreciably stimulate
k, ALC1 remodeling rate constant on unmodified nucleosome in the presence of free ADP-ribosylated peptide (ALC1): 8.323e-05 min⁻¹
